We go through 29 molecules from patent publication US11472798B2 (Mission Therapeutics Limited, priority 2014, dated 2022).

The target of the experiment is T1, UCHL1 (Homo sapiens, UniProt P09936).
T1 construct: made in house; host or cells: HEK293T
T1 sequence (P09936 1-223): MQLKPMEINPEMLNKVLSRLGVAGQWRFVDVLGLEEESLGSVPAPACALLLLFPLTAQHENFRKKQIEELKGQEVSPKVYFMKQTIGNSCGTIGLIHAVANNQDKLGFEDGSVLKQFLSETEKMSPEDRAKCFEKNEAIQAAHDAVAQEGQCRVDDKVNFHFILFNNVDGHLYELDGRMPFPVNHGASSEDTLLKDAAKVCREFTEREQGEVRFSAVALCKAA
In words: UCHL1 biochemical IC50 assay (fluorescence polarisation). Particulars: 30 min enzyme/compound pre-incubation at room temp, read after 2 hr incubation, read-out: Activity range (UCHL1 biochemical IC50 assay). In outline:
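Fluorescence polarisation (ex 540/em 590 nm) of 50 nM TAMRA-labelled ubiquitin–peptide isopeptide substrate was read at time zero and after 2 h at room temperature. Compounds (100–0.03 μM final, in duplicate) were given 30 min preincubation with N-FLAG UCHL1 from HEK293T cells in pH 7.5 Tris buffer.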
(In general: In fluorescence polarisation assays a small probe gives low polarisation when free and higher when bound to something large.)

By IC50 is commonly meant the concentration that gives 50% inhibition. Regarding `Cc1n[nH]c2cc(-n3cnc(NC(=O)[C@H]4CCN(C#N)C4)c3)ccc12` [Example 299, (S)-1-cyano-N-(1-(3-methyl-1H-indazol-6-yl)-1H-imidazol-4-yl)pyrrolidine-3-carboxamide], the IC50 is less than 1000 nM.
As for `N#CN1CCC(C(=O)Nc2ncc(-c3cccc(Cl)c3)s2)C1` (centres unmarked) [Example 5, N-(5-(3-chlorophenyl)thiazol-2-yl)-1-cyano-pyrrolidine-3-carboxamide], the figure is 1000 to 10000 nM.
With `N#CN1CC[C@H](C(=O)Nc2ncc(-c3cccc4c3NC(=O)C4)s2)C1` [Example 228, (S)-1-cyano-N-(5-(2-oxoindolin-7-yl)thiazol-2-yl)pyrrolidine-3-carboxamide] the figure was less than 1000 nM; with `N#CN1CC[C@H](C(=O)Nc2nc3ccc(-n4nccn4)cc3s2)C1` [Example 63, (S)-N-(6-(2H-1,2,3-triazol-2-yl)benzo[d]thiazol-2-yl)-1-cyano-pyrrolidine-3-carboxamide], 1000 to 10000 nM; with `COCCn1cc(-c2ccc(-n3cnc(NC(=O)[C@H]4CCN(C#N)C4)c3)cc2)cn1` [Example 278, (S)-1-cyano-N-(1-(4-(1-(2-methoxyethyl)-1H-pyrazol-4-yl)phenyl)-1H-imidazol-4-yl)pyrrolidine-3-carboxamide], less than 1000 nM.
As for `N#CN1CC[C@H](C(=O)Nc2cc(N3CCCC3)ccn2)C1` [Example 107, (S)-1-cyano-N-(4-(pyrrolidin-1-yl)pyridin-2-yl)pyrrolidine-3-carboxamide], the figure is 1000 to 10000 nM.
`N#CN1CC[C@H](C(=O)Nc2cc3ccccn3n2)C1` [Example 267, (S)-1-cyano-N-(pyrazolo[1,5-a]pyridin-2-yl)pyrrolidine-3-carboxamide]: the half-inhibitory concentration (IC50) was 1000 to 10000 nM.
As for `Cc1oncc1-c1cc(-c2ccnc(NC(=O)[C@H]3CCN(C#N)C3)c2)ccn1` [Example 297, (S)-1-cyano-N-(2′-(5-methylisoxazol-4-yl)-[4-4′-bipyridin]-2-yl)pyrrolidine-3-carboxamide], the figure is less than 1000 nM; as for `COCCn1ncc2cc(-c3cnc(NC(=O)[C@H]4CCN(C#N)C4)s3)ccc21` [Example 227, (S)-1-cyano-N-(5-(1-(2-methoxyethyl)-1H-indazol-5-yl)thiazol-2-yl)pyrrolidine-3-carboxamide], less than 1000 nM.
For the molecule `CN(C)CC(=O)N1CCc2nc(NC(=O)[C@H]3CCN(C#N)C3)sc2C1` [Example 197, (S)-1-cyano-N-(5-(dimethylglycyl)-4,5,6,7-tetrahydrothiazolo[5,4-c]pyridin-2-yl)pyrrolidine-3-carboxamide], the IC50 fell in the range of 1000 to 10000 nM.
With `N#CN1CC[C@H](C(=O)Nc2cn(-c3cccnc3)cn2)C1` [Example 181, (S)-1-cyano-N-(1-(pyridin-3-yl)-1H-imidazol-4-yl)pyrrolidine-3-carboxamide] the figure was less than 1000 nM; with `N#CN1CCC(C(=O)Nc2ccccn2)C1` (centres unmarked) [Example 24, 1-cyano-N-(pyridin-2-yl)pyrrolidine-3-carboxamide], 10000 to 30000 nM.
As for `Cn1cc(-c2ccnc(NC(=O)[C@H]3CCN(C#N)C3)c2)cn1` [Example 211, (S)-1-cyano-N-(4-(1-methyl-1H-pyrazol-4-yl)pyridin-2-yl)pyrrolidine-3-carboxamide], the IC50 fell in the range of 1000 to 10000 nM.
For the molecule `CNC(=O)c1ccccc1-n1cnc(NC(=O)[C@H]2CCN(C#N)C2)c1` [Example 157, (S)-1-cyano-N-(1-(2-(methylcarbamoyl)phenyl)-1H-imidazol-4-yl)pyrrolidine-3-carboxamide], the half-maximal inhibitory concentration (IC50) was in the range of 1000 to 10000 nM.
As for `COc1cc(-c2ccc3nc(NC(=O)[C@H]4CCN(C#N)C4)sc3c2)c(OC)nn1` [Example 132, (S)-1-cyano-N-(6-(3,6-dimethoxypyridazin-4-yl)benzo[d]thiazol-2-yl)pyrrolidine-3-carboxamide], the figure is less than 1000 nM; as for `N#CN1CC[C@H](C(=O)Nc2nc3c(s2)CN(C(=O)c2ccccc2)CC3)C1` [Example 191, (S)—N-(5-benzoyl-4,5,6,7-tetrahydrothiazolo[5,4-c]pyridin-2-yl)-1-cyanopyrrolidine-3-carboxamide], less than 1000 nM; as for `CS(=O)(=O)N1CCc2nc(NC(=O)[C@H]3CCN(C#N)C3)sc2C1` [Example 202, (S)-1-cyano-N-(5-(methylsulfonyl)-4,5,6,7-tetrahydrothiazolo[5,4-c]pyridin-2-yl)pyrrolidine-3-carboxamide], less than 1000 nM.
As for `N#CN1CC[C@@H](C(=O)Nc2ncc(N3CCCCC3)s2)C1` [Example 103, (R)-1-cyano-N-(5-(piperidin-1-yl)thiazol-2-yl)pyrrolidine-3-carboxamide], the figure is 1000 to 10000 nM.
With `N#CN1CCC(C(=O)Nc2ccc3c(cnn3Cc3ccccc3)c2)C1` (centres unmarked) [Example 39, N-(1-benzyl-1H-indazol-5-yl)-1-cyano-pyrrolidine-3-carboxamide] the figure was 10000 to 30000 nM; with `CNC(=O)c1ccc(-n2cnc(NC(=O)[C@H]3CCN(C#N)C3)c2)cc1` [Example 155, (S)-1-cyano-N-(1-(4-(methylcarbamoyl)phenyl)-1H-imidazol-4-yl)pyrrolidine-3-carboxamide], less than 1000 nM; with `Cc1noc(C)c1-c1ccc2nc(NC(=O)[C@H]3CCN(C#N)C3)sc2c1` [Example 120, (S)-1-cyano-N-(6-(3,5-dimethylisoxazol-4-yl)benzo[d]thiazol-2-yl)pyrrolidine-3-carboxamide], less than 1000 nM.
For `C#Cc1cccc(-c2cnc(NC(=O)[C@H]3CCN(C#N)C3)s2)c1` [Example 206, (S)-1-cyano-N-(5-(3-ethynylphenyl)thiazol-2-yl)pyrrolidine-3-carboxamide], the concentration for half-maximal inhibition (IC50) is less than 1000 nM.
As for `N#CN1CC[C@H](C(=O)Nc2cc(-c3ccccc3)ccn2)C1` [Example 268, (S)-1-cyano-N-(4-phenylpyridin-2-yl)pyrrolidine-3-carboxamide], the half-maximal inhibitory concentration (IC50) lay in the range of 1000 to 10000 nM.
Regarding `N#CN1CC[C@H](C(=O)Nc2cn(-c3ccc(C(F)(F)F)cc3)cn2)C1` [Example 153, (S)-1-cyano-N-(1-(4-(trifluoromethyl)phenyl)-1H-imidazol-4-yl)pyrrolidine-3-carboxamide], the concentration for half-maximal inhibition (IC50) is less than 1000 nM.
As for `Cc1cccc(-n2cnc(NC(=O)[C@H]3CCN(C#N)C3)c2)n1` [Example 175, (S)-1-cyano-N-(1-(6-methylpyridin-2-yl)-1H-imidazol-4-yl)pyrrolidine-3-carboxamide], the figure is 1000 to 10000 nM; as for `CCNC(=O)c1cccc(-c2cnc(NC(=O)[C@H]3CCN(C#N)C3)s2)c1` [Example 234, (S)-1-cyano-N-(5-(3-(ethylcarbamoyl)phenyl)thiazol-2-yl)pyrrolidine-3-carboxamide], less than 1000 nM.
With `N#CN1CCC(C(=O)Nc2ncc(-c3ccccc3Cl)s2)C1` (centres unmarked) [Example 6, N-(5-(2-chlorophenyl)thiazol-2-yl)-1-cyano-pyrrolidine-3-carboxamide] the figure was 1000 to 10000 nM.
With `N#CN1CC[C@H](C(=O)Nc2nc3c(s2)CN(C(=O)c2cccnc2)CC3)C1` [Example 196, (S)-1-cyano-N-(5-nicotinoyl-4,5,6,7-tetrahydrothiazolo[5,4-c]pyridin-2-yl)pyrrolidine-3-carboxamide] the figure was less than 1000 nM; with `COC[C@H]1CCCN1Cc1cnc(NC(=O)[C@H]2CCN(C#N)C2)s1` [Example 143, (S)-1-cyano-N-(5-(((R)-2-(methoxymethyl)pyrrolidin-1-yl)methyl)thiazol-2-yl)pyrrolidine-3-carboxamide], 1000 to 10000 nM.
